Results from publication PMC8657855 (International Journal of Molecular Sciences, 2021).
In brackets after ≈: the same amount, converted by molar mass.

How the values were obtained:
Assay in all cases: microbe, parasite or virus in culture
[1] = tested on: Xanthomonas oryzae pv. oryzae Xoo; details: read-out: EC50 (mg/L) Xoo
[2] = tested on: Xanthomonas oryzae pv. oryzicola Xoc; details: for inhibition at 10 µg/mL: read-out: Inhibition (%) 10 (mg/L); for inhibition at 50 µg/mL: read-out: Inhibition (%) 50 (mg/L)
[3] = tested on: Xanthomonas oryzae pv. oryzae Xoo; details: for inhibition at 10 µg/mL: read-out: Inhibition (%) 10 (mg/L); for inhibition at 50 µg/mL: read-out: Inhibition (%) 50 (mg/L)
[4] = tested on: Xanthomonas oryzae pv. oryzicola Xoc; details: read-out: EC50 (mg/L) Xoc

| SMILES | EC50 [1] [mg/L] | inhibition at 10 µg/mL [2] [%] | inhibition at 50 µg/mL [2] [%] | inhibition at 10 µg/mL [3] [%] | inhibition at 50 µg/mL [3] [%] | EC50 [4] [mg/L] |
| --- | --- | --- | --- | --- | --- | --- |
| S=c1[nH]nc(NCNc2n[nH]c(=S)s2)s1 [BT, Bismerthiazol] | 83.1 ± 8.07 (≈ 298 µM) | 7 ± 1.7 | 27 ± 1.7 | 2.5 ± 1.6 | 27.4 ± 5 | 105.9 ± 0.56 (≈ 380 µM) |
| CS(=O)(=O)c1nnc(CNC(=O)C=Cc2cccs2)o1 [compound 1, N-((5-(methylsulfonyl)-1,3,4-oxadiazol-2-yl)methyl)-3-(thiophen-2-yl)acrylamide] | 0.68 ± 0.07 (≈ 2.17 µM) | 97.3 ± 1.8 | 98.3 ± 0.9 | 96.2 ± 1.5 | 97.6 ± 1.2 | 0.86 ± 0.08 (≈ 2.74 µM) |
| CCS(=O)(=O)c1nnc(CNC(=O)C=Cc2cccs2)o1 [compound 2, N-((5-(ethylsulfonyl)-1,3,4-oxadiazol-2-yl)methyl)-3-(thiophen-2-yl)acrylamide] | 0.72 ± 0.07 (≈ 2.2 µM) | 96.9 ± 0.3 | 97.5 ± 0.8 | 85 ± 4.1 | 90.6 ± 8.6 | 3.41 ± 0.05 (≈ 10.4 µM) |
| CS(=O)(=O)c1nnc(CNC(=O)c2ccc(Cl)s2)o1 [compound 3, 5-chloro-N-((5-(methylsulfonyl)-1,3,4-oxadiazol-2-yl)methyl)thiophene-2-car boxamide] | 0.53 ± 0.07 (≈ 1.65 µM) | 98 ± 0.2 | 98.3 ± 1.3 | 98.6 ± 0.8 | 95.8 ± 2.6 | 1.06 ± 0.04 (≈ 3.29 µM) |
| CCS(=O)(=O)c1nnc(CNC(=O)c2ccc(Cl)s2)o1 [compound 4, 5-chloro-N-((5-(ethylsulfonyl)-1,3,4-oxadiazol-2-yl)methyl)thiophene-2-carb oxamide] | 0.45 ± 0.04 (≈ 1.34 µM) | 96.9 ± 1.1 | 99 ± 0.2 | 98.3 ± 1 | 97.9 ± 1.5 | 0.83 ± 0.01 (≈ 2.47 µM) |
| CS(=O)(=O)c1nnc(CNC(=O)c2ccc(Br)o2)o1 [compound 5, 5-bromo-N-((5-(methylsulfonyl)-1,3,4-oxadiazol-2-yl)methyl)furan-2-carbox amide] | 0.48 ± 0.01 (≈ 1.37 µM) | 99.3 ± 0.1 | 97.8 ± 2 | 96.3 ± 2.5 | 96.6 ± 0.4 | 2.59 ± 0.05 (≈ 7.4 µM) |
| CS(=O)(=O)c1nnc(CNC(=O)c2ncc(C(F)(F)F)cc2Cl)o1 [compound 6, 3-chloro-N-((5-(methylsulfonyl)-1,3,4-oxadiazol-2-yl)methyl)-5-(trifluoromethyl)picolinamide] | 3.49 ± 0.07 (≈ 9.07 µM) | 95.5 ± 0.8 | 99.3 ± 0.2 | 94.8 ± 1.8 | 99.7 ± 0.2 | 3.31 ± 0.09 (≈ 8.6 µM) |
| CCS(=O)(=O)c1nnc(CNC(=O)c2ncc(C(F)(F)F)cc2Cl)o1 [compound 7, 3-chloro-N-((5-(ethylsulfonyl)-1,3,4-oxadiazol-2-yl)methyl)-5-(trifluoromethyl)picolinamide] | 7.45 ± 0.16 (≈ 18.7 µM) | 40.1 ± 1.3 | 99.6 ± 0.2 | 48.1 ± 0.8 | 99.8 ± 0.1 | 7.58 ± 0.27 (≈ 19 µM) |
| CS(=O)(=O)c1nnc(CNC(=O)C=Cc2ccccc2)o1 [compound 8, N-((5-(methylsulfonyl)-1,3,4-oxadiazol-2-yl)methyl)cinnamamide] | 0.73 ± 0.08 (≈ 2.38 µM) | 98.8 ± 0.7 | 92.3 ± 7.3 | 99.7 ± 0.3 | 98.9 ± 0.5 | 0.7 ± 0.01 (≈ 2.28 µM) |
| CCS(=O)(=O)c1nnc(CNC(=O)C=Cc2ccccc2)o1 [compound 9, N-((5-(ethylsulfonyl)-1,3,4-oxadiazol-2-yl)methyl)cinnamamide] | 0.89 ± 0.12 (≈ 2.77 µM) | 97.1 ± 1.6 | 98 ± 1.7 | 100 | 97.6 ± 1.4 | 0.78 ± 0.01 (≈ 2.43 µM) |
| CS(=O)(=O)c1nnc(CNC(=O)C=Cc2ccc(F)cc2)o1 [compound 10, 3-(4-fluorophenyl)-N-((5-(methylsulfonyl)-1,3,4-oxadiazol-2-yl)methyl)acrylamide] | 0.36 ± 0.03 (≈ 1.11 µM) | 99 ± 0.8 | 95.6 ± 1 | 99 ± 0.3 | 99.5 ± 0.1 | 0.53 ± 0.01 (≈ 1.63 µM) |
| CCS(=O)(=O)c1nnc(CNC(=O)C=Cc2ccc(F)cc2)o1 [compound 11, N-((5-(ethylsulfonyl)-1,3,4-oxadiazol-2-yl)methyl)-3-(4-fluorophenyl)acrylamide] | 0.72 ± 0.05 (≈ 2.12 µM) | 50.6 ± 2.1 | 99 ± 1.3 | 98.8 ± 0.1 | 99.2 ± 0.4 | 10.8 ± 2.91 (≈ 31.7 µM) |
| Cc1ccc(C=CC(=O)NCc2nnc(S(C)(=O)=O)o2)cc1 [compound 12, N-((5-(methylsulfonyl)-1,3,4-oxadiazol-2-yl)methyl)-3-(p-tolyl)acrylamide] | 0.52 ± 0.04 (≈ 1.62 µM) | 96.9 ± 2.3 | 95.6 ± 2.1 | 99.5 ± 0.1 | 99.8 ± 0.2 | 0.64 ± 0.05 (≈ 1.99 µM) |
| CCS(=O)(=O)c1nnc(CNC(=O)C=Cc2ccc(C)cc2)o1 [compound 13, N-((5-(ethylsulfonyl)-1,3,4-oxadiazol-2-yl)methyl)-3-(p-tolyl)acrylamide] | 0.72 ± 0.07 (≈ 2.15 µM) | 98.1 ± 0.6 | 95.8 ± 1.2 | 99.5 ± 0.1 | 99.2 ± 0.2 | 0.88 ± 0.03 (≈ 2.62 µM) |
| CS(=O)(=O)c1nnc(CNC(=O)C=Cc2ccc(Cl)cc2)o1 [compound 14, 3-(4-chlorophenyl)-N-((5-(methylsulfonyl)-1,3,4-oxadiazol-2-yl)methyl)acrylamide] | 0.43 ± 0.06 (≈ 1.26 µM) | 98.8 ± 0.7 | 98.2 ± 1.1 | 97.6 ± 0.8 |  | 0.61 ± 0.03 (≈ 1.78 µM) |
| CCS(=O)(=O)c1nnc(CNC(=O)C=Cc2ccc(Cl)cc2)o1 [compound 15, 3-(4-chlorophenyl)-N-((5-(ethylsulfonyl)-1,3,4-oxadiazol-2-yl)methyl)acrylamide] | 0.43 ± 0.04 (≈ 1.21 µM) | 97.9 ± 0.4 | 98.9 ± 0.3 | 98.1 ± 0.6 | 98.3 ± 0.2 | 1.45 ± 0.05 (≈ 4.08 µM) |
| CS(=O)(=O)c1nnc(CNC(=O)C=Cc2ccc(Cl)cc2Cl)o1 [compound 16, 3-(2,4-dichlorophenyl)-N-((5-(methylsulfonyl)-1,3,4-oxadiazol-2-yl)methyl)a crylamide] | 0.42 ± 0.05 (≈ 1.12 µM) | 99.2 ± 0.7 | 97.7 ± 0.7 | 98.9 ± 0.3 | 99 ± 0.4 | 1.15 ± 0.05 (≈ 3.06 µM) |
| CC(=CC(=O)NCc1nnc(S(C)(=O)=O)o1)c1ccccc1 [compound 17, N-((5-(methylsulfonyl)-1,3,4-oxadiazol-2-yl)methyl)-3-phenylbut-2-enamide] | 0.54 ± 0.04 (≈ 1.68 µM) | 67.7 ± 0.9 | 94.7 ± 0.9 | 99.4 ± 0.5 | 99.7 ± 0.4 | 5.21 ± 0.11 (≈ 16.2 µM) |
| Cc1ccc(C(=O)NCc2nnc(S(C)(=O)=O)o2)c(C)c1 [compound 18, 2,4-dimethyl-N-((5-(methylsulfonyl)-1,3,4-oxadiazol-2-yl)methyl)benzamide] | 0.69 ± 0.04 (≈ 2.23 µM) | 98.9 ± 1 | 96.9 ± 0.2 | 98.8 ± 0.2 | 98.2 ± 1.4 | 1.74 ± 0.11 (≈ 5.62 µM) |
| CCS(=O)(=O)c1nnc(CNC(=O)c2ccc(C)cc2C)o1 [compound 19, N-((5-(ethylsulfonyl)-1,3,4-oxadiazol-2-yl)methyl)-2,4-dimethylbenzamide] | 1.08 ± 0.11 (≈ 3.34 µM) | 98.2 ± 1 | 95.8 ± 0.8 | 97.2 ± 1.4 | 98.1 ± 0.8 | 1.69 ± 0.18 (≈ 5.23 µM) |
| Cc1ccc(C(=O)NCc2nnc(S(C)(=O)=O)o2)cc1 [compound 20, 4-methyl-N-((5-(methylsulfonyl)-1,3,4-oxadiazol-2-yl)methyl)benzamide] | 0.63 ± 0.06 (≈ 2.13 µM) | 67.8 ± 6.8 | 99 ± 0.9 | 99.4 ± 0.3 | 99.6 ± 0.3 | 1.66 ± 0.21 (≈ 5.62 µM) |
| CS(=O)(=O)c1nnc(CNC(=O)c2c(F)cccc2F)o1 [compound 21, 2,6-difluoro-N-((5-(methylsulfonyl)-1,3,4-oxadiazol-2-yl)methyl)benzamide] | 0.65 ± 0.05 (≈ 2.05 µM) | 97.1 ± 2.3 | 98.4 ± 1.1 | 97.4 ± 0.3 | 96.3 ± 0.4 | 1.51 ± 0.02 (≈ 4.76 µM) |
